Data: ChEMBL document CHEMBL1201862, “PubChem BioAssay data set” (2004)
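A five-concentration, 48-hour dose response in 96-well plates underlies each endpoint, interpolated linearly between surrounding concentrations. GI50 is the concentration that inhibits growth by half.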 Active and inactive are the calls of the source. Cut-off read from the data, not from the text of the source: active = GI50 up to about 1.1 µM and inactive = higher.

How the values were obtained:
Test in all cases: NCI anticancer screen, dose series, 48 h
MDA-MB-231 = test system: MDA-MB-231
UACC-257 = test system: UACC-257
SK-MEL-5 = test system: SK-MEL-5
TK-10 = test system: TK-10
MDA-MB-435 = test system: MDA-MB-435
SF-268 = test system: SF-268
CAKI-1 = test system: CAKI-1
HCT-15 = test system: HCT-15
786-0 = test system: 786-0
OVCAR-5 = test system: OVCAR-5
MDA-N = test system: MDA-N
T47D = test system: T47D
NCI/ADR-RES = test system: NCI/ADR-RES
KM12 = test system: KM12
SF-295 = test system: SF-295
Hs-578T = test system: Hs-578T
HOP-62 = test system: HOP-62
CCRF-CEM = test system: CCRF-CEM

SMILES	GI50 (MDA-MB-231)	GI50 (UACC-257)	GI50 (SK-MEL-5)	GI50 (TK-10)	GI50 (MDA-MB-435)	GI50 (SF-268)	GI50 (CAKI-1)	GI50 (HCT-15)	GI50 (786-0)	GI50 (OVCAR-5)	GI50 (MDA-N)	GI50 (T47D)	GI50 (NCI/ADR-RES)	GI50 (KM12)	GI50 (SF-295)	GI50 (Hs-578T)	GI50 (HOP-62)	GI50 (CCRF-CEM)
CC[C@@H]1CSC(/C=C/C2OC3OC(C)(C)OC3C3OC(C)(C)OC23)=N1 (stereo not given in full)	12.4 µM (inactive)	10.1 µM (inactive)	6.67 µM (inactive)	3.78 µM (inactive)	4.15 µM (inactive)	6.03 µM (inactive)	11.1 µM (inactive)	3.75 µM	3.98 µM (inactive)	7.91 µM (inactive)	4.5 µM (inactive)	4.25 µM (inactive)	12.7 µM (inactive)	13.6 µM (inactive)	18.6 µM (inactive)	17.9 µM (inactive)	22.9 µM (inactive)	
O=C(c1ccncc1)C1C(=O)c2ccccc2C1C1(O)c2ccccc2CC1C(O)c1ccncc1 (stereo not given)	39.2 µM (inactive)	52.7 µM (inactive)	36 µM (inactive)	90.8 µM (inactive)	16.9 µM (inactive)	46.7 µM (inactive)	34.7 µM (inactive)	41.3 µM	39.9 µM (inactive)	65.6 µM (inactive)	13.3 µM (inactive)	50.8 µM (inactive)	46.6 µM (inactive)	35.3 µM (inactive)	31.4 µM (inactive)	38.6 µM (inactive)	35.6 µM (inactive)	
COc1ccc(/N=N/C(=O)NC(CC(C)C)C(=O)NC(Cc2ccccc2)C(=O)O)cc1 (stereo not given)		3.41 µM (inactive)	2.61 µM (inactive)	> 100 µM (inactive)	0.705 µM (active)	1.53 µM (inactive)	> 100 µM (inactive)	0.378 µM	> 100 µM (inactive)	1.88 µM (inactive)	0.7 µM (active)	1.06 µM (active)	> 100 µM (inactive)	11.9 µM (inactive)	1.62 µM (inactive)	> 100 µM (inactive)	> 100 µM (inactive)	0.929 µM (active)
O=C1C(Br)=C(C2=CC(=P(c3ccccc3)(c3ccccc3)c3ccccc3)C=C2)C(=O)C(Br)=C1C1=CC(=P(c2ccccc2)(c2ccccc2)c2ccccc2)C=C1	42.1 µM (inactive)	33.3 µM (inactive)	> 100 µM (inactive)	30.3 µM (inactive)		> 100 µM (inactive)	> 100 µM (inactive)		37.9 µM (inactive)	17.9 µM (inactive)	> 100 µM (inactive)	> 100 µM (inactive)	> 100 µM (inactive)	> 100 µM (inactive)	> 100 µM (inactive)	> 100 µM (inactive)	> 100 µM (inactive)	> 100 µM (inactive)
Cc1ccc2c(c1)OC1Nc3ccccc3C1=C2O (stereo not given)	20.6 µM (inactive)	22.2 µM (inactive)	16.4 µM (inactive)	22.9 µM (inactive)	26.2 µM (inactive)	40 µM (inactive)	23.2 µM (inactive)	25.1 µM	20.1 µM (inactive)	32.6 µM (inactive)	24.7 µM (inactive)	20.3 µM (inactive)	20.9 µM (inactive)	26.4 µM (inactive)	21.6 µM (inactive)	73.8 µM (inactive)	27.4 µM (inactive)	
CCOC(=O)CSc1nc2ccccc2c(=O)n1N	> 100 µM (inactive)	> 100 µM (inactive)	> 100 µM (inactive)	83.2 µM (inactive)	> 100 µM (inactive)	> 100 µM (inactive)	> 100 µM (inactive)	> 100 µM	> 100 µM (inactive)	> 100 µM (inactive)	> 100 µM (inactive)	> 100 µM (inactive)	> 100 µM (inactive)	> 100 µM (inactive)	> 100 µM (inactive)	> 100 µM (inactive)		
